Results taken from a melting point compilation (Tetko et al.).

Row | Compound | melting point [°C]
1 | Cc1cc(C=O)c(C)n1-c1cccc(F)c1 | 78 to 80
2 | CN(CC(=O)Nc1ccccc1Cl)C(=O)CCl | 115 to 117
3 | O=C(O)c1cnc(S)n1-c1ccccc1 | 245 to 247
4 | O=C(NCCO)c1ccc(Cl)nn1 | 119 to 121
5 | COc1ccc(CCNC(=O)CC(=O)NCCc2ccc(OC)cc2)cc1 | 161 to 163
6 | CC(C)Oc1cccc(C(O)CN)c1 (configuration not stated) | 52 to 54
7 | NS(=O)(=O)c1ccc(-c2cccc(C(F)(F)F)c2)c(C(=O)O)c1 | 181 to 183
8 | CN1CCN(Cc2cccc(N)c2)CC1 | 78 to 80
9 | COc1ccccc1-c1nn(C)cc1C(=O)O | 203 to 205
10 | N#Cc1ccc(S(N)(=O)=O)cc1Cl | 157 to 159
11 | O=C(NO)c1occc1CSc1ccccc1 | 99 to 101
12 | COC(=O)C1=NN(c2cccc(C(=O)O)c2)C(=O)C1CCO (configuration not stated) | 211 to 213
13 | c1ccc(-c2ccc3[nH]ccc3c2)cc1 | 74 to 76
14 | O=C(O)CC1CCS(=O)(=O)C1 (configuration not stated) | 87 to 89
15 | C=CC(=O)NC(=O)Nc1ccccc1 | 149 to 151
16 | CC(Cl)C(=O)NC1CC1 (configuration not stated) | 67 to 71
17 | CS(=O)(=O)c1nc2ccccc2[nH]1 | 188 to 192
18 | N#Cc1ccc(N2CCOC2=O)cc1 | 149 to 151
19 | Cc1nnc2[nH]nc(N)c2c1C | 264 to 266
20 | O=C(O)c1ccc(CNC2=NS(=O)(=O)c3ccccc32)cc1 | 303 to 305
21 | Cc1ccc(C(=O)CCC(=O)O)cc1C | 127 to 129

Row | Compound | melting point [°C]
22 | CN(C)C(=O)Cn1cnc(N)n1 | 135 to 137
23 | COc1ccc2nc(C3CC3)cc(C(=O)O)c2c1 | 219 to 221
24 | CSCc1nc(N)ccc1Cl | 70 to 72
25 | O=C(O)c1cc(Cl)ccc1OC(F)F | 109 to 111
26 | Cc1ccc(C#N)c(Br)c1 | 50 to 55
27 | Cc1ccccc1COc1c(C)cc(C=O)cc1C | 62 to 64
28 | CCc1noc2ncc(C(=O)O)cc12 | 193 to 195
29 | Nc1cc(-c2ccco2)nn1-c1ccc(Cl)cc1 | 129 to 131
30 | OCc1ccc(F)c2cccnc12 | 131 to 133
31 | COc1ccc(-c2csc(N)n2)cc1Br | 188 to 190
32 | Brc1ccc(-c2ncno2)cc1 | 109 to 111
33 | COC(=O)c1c(Cl)ccc([N+](=O)[O-])c1N | 89 to 91
34 | CC(C)CCNS(=O)(=O)c1ccc(Cl)nc1 | 91 to 93
35 | O=Cc1cccc(OCC(=O)O)c1 | 111 to 113
36 | CSCC(=O)Nc1ccc(O)cc1 | 107 to 109
37 | CCCNC(=O)c1ccccc1N | 206 to 208
38 | O=C(O)c1cc(OCc2ccccc2)ccc1O | 165 to 167
39 | Cc1cc2cc(C=O)oc2cc1C | 69 to 71
40 | O=C(O)C(Cc1ccccc1)NC(=O)C12CC3CC(CC(C3)C1)C2 (configuration not stated) | 162 to 164
41 | Cc1ccc(C(=O)Cc2ccccc2)cc1C | 93 to 95

More lines, now with the values ahead:

Row | melting point [°C] | Compound
42 | 149 to 151 | Cc1oc2nc[nH]c(=O)c2c1C(=O)O
43 | 199 to 201 | O=C(O)c1ccc(-c2cnccn2)cn1
44 | 209 to 211 | Nc1nc2cnc(Cl)nc2s1
45 | 201 to 203 | Cc1ccc(NCCC(=O)O)nc1
46 | 109 to 111 | Cc1nncn1-c1cccc(N)c1
47 | < 17 | FC(F)Sc1nc2ccccc2[nH]1
48 | 179 to 181 | O=C(Cc1cccc2ccccc12)NO
49 | 185 to 187 | CC1=NN(C2CCS(=O)(=O)C2)C(=O)C1 (configuration not stated)
50 | 248 to 250 | CCCCc1c(C)nc2nc(S)nn2c1C
51 | 263 to 265 | Cn1ccnc1-c1nnc(N)s1
52 | 140 to 142 | CN1CCN(S(=O)(=O)c2cccc(N)c2)CC1
53 | 171 to 173 | Cn1cnnc1Sc1ccc(C=O)cc1[N+](=O)[O-]
54 | 112 to 114 | COCCNC(=O)c1ccc(Cl)nc1
55 | 55 to 57 | CC1CC1c1cc(N)on1 (configuration not stated)
56 | 216 to 218 | Nc1nc(-c2ccc(NC(=O)c3ccccc3)cc2)cs1
57 | 226 to 228 | NC(=O)CCc1ccc(C(=O)O)cc1
58 | 114 to 116 | NC(=O)c1sccc1-c1ccccc1
59 | 178 to 180 | O=C(O)C1CNc2ccccc21 (configuration not stated)
60 | 103 to 105 | C=CCN(c1ccccc1)S(=O)(=O)c1cccc(C(=O)O)c1
61 | 110 to 112 | Clc1ccc2c(c1)NCCS2
62 | 107 to 109 | N#Cc1ccc(Cn2cncn2)c(F)c1

Row | melting point [°C] | Compound
63 | 104 to 106 | COC(=O)CNc1ncccc1[N+](=O)[O-]
64 | 154 to 156 | COc1ccc(NC(=O)c2ccccc2N)c(OC)c1
65 | 195 to 197 | O=C(O)c1cnoc1-c1ccco1
66 | 71 to 73 | Cc1cccc2[nH]c(CO)cc12
67 | 54 to 56 | Oc1ccc(OCC2CC2)cc1
68 | 113 to 115 | CN1CCN(C(=O)C2CCc3ccccc3N2)CC1 (configuration not stated)
69 | 152 to 154 | O=C(O)CNC(=O)c1ccccc1C(F)(F)F
70 | 189 to 191 | Nc1ccc(-c2nc3cc(Br)ccc3s2)cc1
71 | 249 to 251 | O=C(Cc1nc2ccccc2[nH]1)C(F)(F)F
72 | 119 to 121 | CCOC(=O)c1cc(Br)cc(S(N)(=O)=O)c1
73 | 45 to 47 | Fc1cccc2c1CCCN2
74 | < 17 | CC1(CCc2ccccc2)NC(=O)N(N)C1=O (configuration not stated)
75 | 159 to 161 | O=C(O)CCc1nnc(-c2ccsc2)o1
76 | 178 to 180 | Cc1nn(-c2ccc(Cl)cc2)c(C)c1CC(=O)O
77 | 54 to 56 | NCC1CC(O)CN1Cc1ccccc1 (configuration not stated)
78 | 96 to 98 | O=C1CCCCC1c1ccc(C(F)(F)F)cc1 (configuration not stated)
79 | 222 to 224 | CC(C)(C)OC(=O)N1CCN2C(=O)C(=O)NCC2C1 (configuration not stated)
80 | 205 to 207 | CCC(C)C(NC(N)=O)C(=O)O (configuration not stated)
81 | 253 to 255 | N#Cc1cccc(-c2nnc(N)o2)c1
82 | 180 to 182 | O=[N+]([O-])c1cc(S(=O)(=O)Nc2nc3ccccc3nc2Cl)ccc1Cl
83 | 234 to 236 | Cc1ccc(C(=O)O)cc1NS(=O)(=O)c1ccc(F)cc1

Row | melting point [°C] | Compound
84 | 64 to 66 | CC(=O)c1cccc(-c2ccncc2)c1
85 | 113 to 115 | N#CCc1nnc2n1CCCCC2
86 | 147 to 149 | CC(C)C(NC(=O)CCc1ccccc1)C(=O)O (configuration not stated)
87 | 134 to 136 | O=C(O)C1CC1c1cc(Cl)cc(Cl)c1 (configuration not stated)
88 | 139 to 141 | O=C(O)CCC(=O)c1csc2ccccc12
89 | 190 to 192 | Nc1ccc(OCC(F)(F)F)c(C(=O)O)c1
90 | 126 to 128 | COC(=O)CN1CCC(C(N)=O)CC1
91 | 94 to 98 | O=c1cccn[nH]1
92 | 186 to 188 | O=C(O)c1cn(-c2ccccc2)nc1-c1cccc2ccccc12
93 | 62 to 64 | CSc1nc2ncccc2o1
94 | 157 to 159 | O=C(O)C1CC1c1ccc(Cl)cc1Cl (configuration not stated)
95 | 154 to 156 | CC(C)C(=O)NC(C)C(=O)O (configuration not stated)
96 | 175 to 177 | Cc1ccc2nc(NCc3ccccc3)sc2c1
97 | 102 to 104 | Cc1ccc(-c2nn(-c3ccccc3)cc2C=O)cc1C
98 | 278 to 280 | Cn1c(N)nnc1S
99 | 87 to 89 | N#Cc1ccc2ocnc2c1
100 | 146 to 148 | COc1cc2c(cc1/C=C/C(=O)O)OC(C)C2 (configuration not stated)
101 | 113 to 115 | CCC(C)Nc1ccc(C(N)=O)cc1 (configuration not stated)
102 | 61 to 63 | COc1ccccc1-c1noc(CCl)n1
